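GI50 is the concentration that inhibits growth by half. At the TGI there is no net growth.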
Tests used:
Assay in all cases: NCI anticancer screen, dose series, 384-well format
A498 renal = tested on: A498 renal
A549 NSCLC = tested on: A549 NSCLC
ACHN renal = tested on: ACHN renal
BT-549 breast = tested on: BT-549 breast
CAKI-1 renal = tested on: CAKI-1 renal
COLO 205 colon = tested on: COLO 205 colon
DU-145 prostate = tested on: DU-145 prostate
EKVX NSCLC = tested on: EKVX NSCLC
HCC-2998 colon = tested on: HCC-2998 colon
HCT-116 colon = tested on: HCT-116 colon
HCT-15 colon = tested on: HCT-15 colon
HL-60(TB) leukemia = tested on: HL-60(TB) leukemia
HOP-62 NSCLC = tested on: HOP-62 NSCLC
HOP-92 NSCLC = tested on: HOP-92 NSCLC
HS 578T breast = tested on: HS 578T breast
HT29 colon = tested on: HT29 colon
IGROV1 ovarian = tested on: IGROV1 ovarian
KM12 colon = tested on: KM12 colon
LOX IMVI melanoma = tested on: LOX IMVI melanoma
M14 melanoma = tested on: M14 melanoma
MALME-3M melanoma = tested on: MALME-3M melanoma
MCF7 breast = tested on: MCF7 breast
MDA-MB-231 breast = tested on: MDA-MB-231 breast
MDA-MB-435 melanoma = tested on: MDA-MB-435 melanoma
MDA-MB-468 breast = tested on: MDA-MB-468 breast
MOLT-4 leukemia = tested on: MOLT-4 leukemia
NCI-H226 lung = tested on: NCI-H226 lung
NCI-H23 lung = tested on: NCI-H23 lung
NCI-H322M lung = tested on: NCI-H322M lung
NCI-H460 NSCLC = tested on: NCI-H460 NSCLC
NCI-H522 lung = tested on: NCI-H522 lung
NCI/ADR-RES ovarian = tested on: NCI/ADR-RES ovarian
OVCAR-3 ovarian = tested on: OVCAR-3 ovarian
OVCAR-4 ovarian = tested on: OVCAR-4 ovarian
OVCAR-5 ovarian = tested on: OVCAR-5 ovarian
OVCAR-8 ovarian = tested on: OVCAR-8 ovarian
PC-3 prostate = tested on: PC-3 prostate
RPMI-8226 leukemia = tested on: RPMI-8226 leukemia
RXF 393 renal = tested on: RXF 393 renal
SF-268 CNS = tested on: SF-268 CNS
SF-295 CNS = tested on: SF-295 CNS
SF-539 CNS = tested on: SF-539 CNS
SK-MEL-28 melanoma = tested on: SK-MEL-28 melanoma
SK-MEL-5 melanoma = tested on: SK-MEL-5 melanoma
SK-OV-3 ovarian = tested on: SK-OV-3 ovarian
SN12C renal = tested on: SN12C renal
SNB-19 CNS = tested on: SNB-19 CNS
SNB-75 CNS = tested on: SNB-75 CNS
SR leukemia = tested on: SR leukemia
T-47D breast = tested on: T-47D breast
TK-10 renal = tested on: TK-10 renal
U251 glioblastoma = tested on: U251 glioblastoma
UACC-257 melanoma = tested on: UACC-257 melanoma
UACC-62 melanoma = tested on: UACC-62 melanoma

N#CCNC(=O)c1ccc(-c2ccnc(Nc3ccc(N4CCOCC4)cc3)n2)cc1
GI50 (A498 renal): 1.14 µM | TGI (A498 renal): 2.53 µM | GI50 (A549 NSCLC): 3.19 µM | TGI (A549 NSCLC): 13.7 µM | GI50 (ACHN renal): 1.27 µM | TGI (ACHN renal): 4.14 µM | GI50 (BT-549 breast): 1.15 µM | TGI (BT-549 breast): 2.46 µM | GI50 (CAKI-1 renal): 1.23 µM | TGI (CAKI-1 renal): 3.19 µM | GI50 (COLO 205 colon): 4.24 µM | TGI (COLO 205 colon): 14.8 µM | GI50 (DU-145 prostate): 1.55 µM | TGI (DU-145 prostate): 3.99 µM | GI50 (EKVX NSCLC): 2.93 µM | TGI (EKVX NSCLC): 16.8 µM | GI50 (HCC-2998 colon): 1.93 µM | TGI (HCC-2998 colon): 4.18 µM | GI50 (HCT-116 colon): 1.51 µM | TGI (HCT-116 colon): 3.91 µM | GI50 (HCT-15 colon): 3.02 µM | TGI (HCT-15 colon): 10.7 µM | GI50 (HL-60(TB) leukemia): 1.55 µM | TGI (HL-60(TB) leukemia): 2.89 µM | GI50 (HOP-62 NSCLC): 1.81 µM | TGI (HOP-62 NSCLC): 4.09 µM | GI50 (HOP-92 NSCLC): 6.94 µM | TGI (HOP-92 NSCLC): 29 µM | GI50 (HS 578T breast): 1.32 µM | TGI (HS 578T breast): 3.33 µM | GI50 (HT29 colon): 4.15 µM | TGI (HT29 colon): 24.6 µM | GI50 (IGROV1 ovarian): 1.42 µM | TGI (IGROV1 ovarian): 3.91 µM | GI50 (KM12 colon): 3.51 µM | TGI (KM12 colon): 74.1 µM | GI50 (LOX IMVI melanoma): 1.7 µM | TGI (LOX IMVI melanoma): 4.06 µM | GI50 (M14 melanoma): 6.27 µM | TGI (M14 melanoma): 51.2 µM | GI50 (MALME-3M melanoma): 3.05 µM | TGI (MALME-3M melanoma): 23.5 µM | GI50 (MCF7 breast): 2.24 µM | TGI (MCF7 breast): 8.44 µM | GI50 (MDA-MB-231 breast): 1.89 µM | TGI (MDA-MB-231 breast): 16.8 µM | GI50 (MDA-MB-435 melanoma): 4.02 µM | TGI (MDA-MB-435 melanoma): 21.5 µM | GI50 (MDA-MB-468 breast): 1.37 µM | TGI (MDA-MB-468 breast): 3.2 µM | GI50 (MOLT-4 leukemia): 2.07 µM | TGI (MOLT-4 leukemia): 3.99 µM | GI50 (NCI-H226 lung): 1.43 µM | TGI (NCI-H226 lung): 3.66 µM | GI50 (NCI-H23 lung): 2.33 µM | TGI (NCI-H23 lung): 13.6 µM | GI50 (NCI-H322M lung): 2.72 µM | TGI (NCI-H322M lung): 10.8 µM | GI50 (NCI-H460 NSCLC): 1.06 µM | TGI (NCI-H460 NSCLC): 2.5 µM | GI50 (NCI-H522 lung): 1.64 µM | TGI (NCI-H522 lung): 6.45 µM | GI50 (NCI/ADR-RES ovarian): 21.4 µM | TGI (NCI/ADR-RES ovarian): > 100 µM | GI50 (OVCAR-3 ovarian): 4.64 µM | TGI (OVCAR-3 ovarian): 19 µM | GI50 (OVCAR-4 ovarian): 3.59 µM | TGI (OVCAR-4 ovarian): 11.1 µM | GI50 (OVCAR-5 ovarian): 2.63 µM | TGI (OVCAR-5 ovarian): 5.71 µM | GI50 (OVCAR-8 ovarian): 3.68 µM | TGI (OVCAR-8 ovarian): 17.6 µM | GI50 (PC-3 prostate): 2.9 µM | TGI (PC-3 prostate): 11.8 µM | GI50 (RPMI-8226 leukemia): 1.23 µM | TGI (RPMI-8226 leukemia): 2.87 µM | GI50 (RXF 393 renal): 1.61 µM | TGI (RXF 393 renal): 3.26 µM | GI50 (SF-268 CNS): 2.12 µM | TGI (SF-268 CNS): 6.6 µM | GI50 (SF-295 CNS): 4.06 µM | TGI (SF-295 CNS): 17 µM | GI50 (SF-539 CNS): 2.12 µM | TGI (SF-539 CNS): 10 µM | GI50 (SK-MEL-28 melanoma): 6.23 µM | TGI (SK-MEL-28 melanoma): 50.8 µM | GI50 (SK-MEL-5 melanoma): 2.16 µM | TGI (SK-MEL-5 melanoma): 9.34 µM | GI50 (SK-OV-3 ovarian): 2.73 µM | TGI (SK-OV-3 ovarian): 20.7 µM | GI50 (SN12C renal): 0.787 µM | TGI (SN12C renal): 3.94 µM | GI50 (SNB-19 CNS): 7.84 µM | TGI (SNB-19 CNS): 28.3 µM | GI50 (SNB-75 CNS): 2.52 µM | TGI (SNB-75 CNS): 15.5 µM | GI50 (SR leukemia): 0.468 µM | TGI (SR leukemia): 1.29 µM | GI50 (T-47D breast): 11 µM | TGI (T-47D breast): 39.9 µM | GI50 (TK-10 renal): 1.25 µM | TGI (TK-10 renal): 3.27 µM | GI50 (U251 glioblastoma): 2.28 µM | TGI (U251 glioblastoma): 5.9 µM | GI50 (UACC-257 melanoma): 3.19 µM | TGI (UACC-257 melanoma): 8.82 µM | GI50 (UACC-62 melanoma): 3.57 µM | TGI (UACC-62 melanoma): 15.3 µM

From PubChem BioAssay (NCI)
